The results in this text go back to US20190059368A1, “3,5-DIMETHOXYSTILBENE ANALOGS AND USES THEREOF” (The United States of America, as represented by the …, priority 2017, published 2019).

The test system of one experiment is Colletotrichum acutatum. As to the kind of experiment: Direct bioautography, antifungal. To be noted: Colletotrichum acutatum; 2 mM; 4 μl spotted (2 μl of the positive controls); average of 2 assays; read-out: zones of inhibition. The format is cell-based. Here is the method:
(§1) The analogs were tested for activity against Colletotrichum acutatum SIMMONDS, C. fragariae BROOKS, and C. gloeosporioides (PENZ) PENZ & SACC. in Penz., using a direct bioautography method as previously described by Tabanca et al. (Nat. Prod. Commun. 2008, 3, 1073) and Wang, et al. (J. Agric. Food Chem. 2013, 61, 4551). Technical grade commercial fungicide standards benomyl, cyprodinil, azoxystrobin, and captan were used at 0.9-1.61 μg/μl concentrations in 95% EtOH. After sample application, each TLC plate was subsequently sprayed with a spore suspension (3.0×10^5 spores/ml) of the fungus of interest and incubated in a moisture chamber for 4 days at 26° C. with a 12 hour photoperiod. Clear zones of fungal growth inhibition on the TLC plate indicated the presence of antifungal constituents in each extract or pure compound. The test compounds were prepared at 2 mM soln. in 95% EtOH, and 4 μl were spotted on the plates (2 μl of the positive controls).

The subject of another experiment is C. fragariae. As to the kind of experiment: Direct bioautography, antifungal. Type of experiment: cell-based, Colletotrichum fragariae. The note with it: Colletotrichum fragariae; 2 mM; 4 μl spotted (2 μl of the positive controls); average of 2 assays; read-out: zones of inhibition. Here is the method:
as §1

The subject of another experiment is C. gloeosporioides. As to the kind of experiment: Direct bioautography, antifungal. Type of experiment: cell-based, Colletotrichum gloeosporioides. To be noted: Colletotrichum gloeosporioides; 2 mM; 4 μl spotted (2 μl of the positive controls); average of 2 assays; read-out: zones of inhibition. The protocol:
as §1

The next experiment relates to Colletotrichum species. As to the kind of experiment: Direct bioautography, antifungal (overall statement). Type of experiment: cell-based, Colletotrichum sp. The protocol: as §1

For the compound `COc1cc(/C=C\c2ccccc2)cc(OC)c1C` [Compound 7a, (Z)-1,3-dimethoxy-2-methyl-5-styrylbenzene], the zone of inhibition at 2000 µM in the experiment with Colletotrichum acutatum was found to be 8 mm; in the experiment on C. fragariae, 6.5 mm; with C. gloeosporioides it was 7 mm. In addition, in the experiment with Colletotrichum species, the “inhibitory effect on Colletotrichum species (in words)” value is recorded as “strong inhibitory effect”.
